Laboratory results taken from ChEMBL document CHEMBL1142196, “Leishmania donovani polyamine biosynthetic enzyme overproducers as tools to investigate the mode of action of cytotoxic polyamine analogs” (Antimicrob Agents Chemother, 2007).
pEC50: −log10 of the molar value. The source made the active and inactive calls. The calls are words filed in the database; no cut-off is given here.

Experiments:
Leishmania donovani [1] = assay: Growth of Leishmania donovani DI700 promastigotes at 100 uM relative to control
Leishmania donovani [2] = assay: Antiproliferative activity against Leishmania donovani DI700 promastigotes; type: functional, organism-based
Leishmania donovani [3] = assay: Antiproliferative activity against Leishmania donovani DI700 promastigotes overproducing ADOMETDC enzyme; type: functional, organism-based
Leishmania donovani [4] = assay: Antiproliferative activity against Leishmania donovani DI700 promastigotes in presence of 100 uM putrescine; type: functional, organism-based
Leishmania donovani [5] = assay: Antiproliferative activity against Leishmania donovani DI700 promastigotes overproducing ODC enzyme; type: functional, organism-based
Leishmania donovani [6] = assay: Antiproliferative activity against Leishmania donovani DI700 promastigotes in presence of 100 uM spermidine; type: functional, organism-based
Leishmania donovani [7] = assay: Antiproliferative activity against Leishmania donovani DI700 promastigotes overproducing SPDSYN enzyme; type: functional, organism-based

| Structure (SMILES) | growth, % of control at 100 µM (Leishmania donovani [1]) [%] | Activity (Leishmania donovani [2]) | pEC50 (Leishmania donovani [2]) | pEC50 (Leishmania donovani [3]) | pEC50 (Leishmania donovani [4]) | pEC50 (Leishmania donovani [5]) | pEC50 (Leishmania donovani [6]) | pEC50 (Leishmania donovani [7]) |
| --- | --- | --- | --- | --- | --- | --- | --- | --- |
| CCNCCCCNC/C=C\CNCCCCNCCCCNCC | 96.2 | inactive | – | – | – | – | – | – |
| CCNCCCCNCCCCNCCCCNCCCCNC/C=C/CNCCCCNCCCCNCCCCNCCCCNCC | 62.4 | inactive | – | – | – | – | – | – |
| CCNC/C=C\CNCCCCNCCCCNCCCCNCC | 83.2 | inactive | – | – | – | – | – | – |
| CCNCCCCNCCCCNCCCCNCCCCNCCCCNCCCCNCCCCNCCCCNCCCCN(CC)C(=O)CCC1=C(C)c2cc3[nH]c(cc4nc(cc5[nH]c(cc1n2)c(CCC(=O)N(CC)CCCCNCCCCNCCCCNCCCCNCCCCNCCCCNCCCCNCCCCNCCCCNCC)c5C)C(CC)=C4C)c(CC)c3C | 2.2 | – | 6.30 | – | – | – | – | – |
| CCNCCCCNCC1CC1CNCCCCNCC1CC1CNCCCCNCC (stereo not given) | 118 | inactive | – | – | – | – | – | – |
| CCCCCCCCCCCCCC1CCN(CCCN)CCCN(C)CCCCN(C)CCCCN1C (stereo not given) | 98.3 | inactive | – | – | – | – | – | – |
| CCNC/C=C\CNC/C=C\CNC/C=C\CNCC | 104 | inactive | – | – | – | – | – | – |
| CCNCCCCNCCCCNCCCCNC/C=C/CNCCCCNCCCCNCCCCNCC | 85.5 | inactive | – | – | – | – | – | – |
| CCNCCCCNCCCCNCCCCNCCCCNC/C=C\CNCCCCNCCCCNCCCCNCCCCNCC | 25.7 | inactive | – | – | – | – | – | – |
| CN(C/C=C\CN)C[C@H]1O[C@@H](n2cnc3c(N)ncnc32)[C@H](O)[C@@H]1O | – | – | 4.40 | < 2.00 | 3.10 | 2.57 | < 2.00 | 3.70 |
| CCNCCCCNCCCCNCCCCNCCCCNCCCCNCCCCNCCCCNCCCCNCCCCNCCCCNCCCCNCC | 8.4 | – | 6.40 | – | – | 5.26 | – | 6.30 |
| CCNCCCCNCCCCNCCCCNCCCCN(CC)CCCCNCCCCNCCCCNCCCCNCC | 102 | inactive | – | – | – | – | – | – |
| N=C(N)c1ccc(OCCCCCOc2ccc(C(=N)N)cc2)cc1 [PENTAMIDINE] | – | – | 5.72 | 5.77 | 5.72 | 5.59 | 5.70 | 5.77 |
| CCNCCCCNCC1CC1CNCCCCN(CC)C(=O)CCC1=C(C)c2cc3[nH]c(cc4nc(cc5[nH]c(cc1n2)c(CCC(=O)N(CC)CCCCNCC1CC1CNCCCCNCC)c5C)C(CC)=C4C)c(CC)c3C (stereo not given) | 1.3 | inactive | – | – | – | – | – | – |
| CCNCCCCNCCCCNCCCCNCCCCNCCCCNCCCCNCCCCNCCCCNCCCCNCCCCNCCCCNCCCCNCCCCNCC | 8.9 | – | 5.05 | – | – | – | – | – |
| CCNCCCCNCC1CC1CNCCCCNCC (stereo not given) | 81.4 | inactive | – | – | – | – | – | – |

| Structure (SMILES) | growth, % of control at 100 µM (Leishmania donovani [1]) [%] | Activity (Leishmania donovani [2]) | pEC50 (Leishmania donovani [2]) | pEC50 (Leishmania donovani [3]) | pEC50 (Leishmania donovani [4]) | pEC50 (Leishmania donovani [5]) | pEC50 (Leishmania donovani [6]) | pEC50 (Leishmania donovani [7]) |
| --- | --- | --- | --- | --- | --- | --- | --- | --- |
| N=C(N)c1ccc(/N=N/Nc2ccc(C(=N)N)cc2)cc1 [DIMINAZENE] | – | – | 5.02 | 5.01 | 5.21 | 5.06 | 5.01 | 5.10 |
| CC(/C=N/NC(=N)N)=N\NC(=N)N [MITOGUAZONE] | – | – | 2.74 | 2.82 | 2.59 | 2.66 | 2.74 | 2.85 |
| CCNCCCCNCCCCNCCCCNCCCCNCC1CC1CNCCCCNCCCCNCCCCNCCCCNCC (stereo not given) | 73 | inactive | – | – | – | – | – | – |
| CCNCCCCNCCCCNCCCCNCCCCNCCCCNC/C=C/CNCCCCNCCCCNCCCCNCCCCNCCCCNCC | 7.5 | inactive | – | – | – | – | – | – |
| CCNC/C=C\CNCCCCNC/C=C\CNCC | 128 | inactive | – | – | – | – | – | – |
| CCNCCCNCC1CC1CNCCCNCC (stereo not given) | 106 | inactive | – | – | – | – | – | – |
| NCCC[C@](N)(C(=O)O)C(F)F [EFLORNITHINE, (S)-] | – | – | 4.40 | 4.52 | < 3.00 | < 3.00 | 3.89 | 4.40 |
| CCCCN [BUTYLAMINE] | – | – | 3.40 | 3.70 | 2.70 | 2.68 | < 2.00 | 2.48 |
| CCNCCCCNCCCCNCCCCNC/C=C\CNCCCCNCCCCNCCCCNCC | 97.2 | inactive | – | – | – | – | – | – |
| CCNCCCCNCC1CCC1CNCCCCNCC (stereo not given) | 92.8 | inactive | – | – | – | – | – | – |
| CCNCCCCNCCCCNCCCCNCCCCNCCCCNCCCCNCCCCNCCCCNCCCCN(CC)C(=O)CCC1=C(C)c2cc3[nH]c(cc4nc(cc5[nH]c(cc1n2)c(CCC(=O)N(CC)CCCCNCCCCNCCCCNCCCCNCCCCNCCCCNCCCCNCCCCNCCCCNCC)c5C)C(S(=O)(=O)O)=C4C)c(S(=O)(=O)O)c3C | 1.1 | – | 6.15 | – | – | – | – | – |
| CCNCCCCNCCCCNCCCCNCCCCNCCCCNCCCCNC/C=C/CNCCCCNCCCCNCCCCNCCCCNCCCCNCCCCNCC | 7.9 | – | 5.19 | – | – | – | – | – |
| CCNCCCCNCCCCNCCCCNCCCCNCCCCNCCCCNCCCCNCCCCNCCCCNCC | 62.6 | – | 5.05 | – | – | 5.05 | – | 4.30 |
| CCCCCCCCCCCCCC1CCN(CCCNC(=O)CCC2=C(C)c3cc4[nH]c(cc5nc(cc6[nH]c(cc2n3)c(CCC(=O)NCCCN2CCCN(C)CCCCN(C)CCCN(C)C(CCCCCCCCCCCCC)CC2)c6C)C(CC)=C5C)c(CC)c4C)CCCN(C)CCCCN(C)CCCN1C (stereo not given) | 1.7 | – | 4.30 | – | – | – | – | – |
| CCNCCCCNCCCCNCCCCNCCCCNCCCCNCCCCNCCCCNCC | 99.2 | inactive | – | – | – | – | – | – |
